Columns and labels:
[1] = molecular target: T1, HCV polymerase (NS5B) type 1b (Hepatitis C virus genotype 1b, UniProt P26663); test: Assay of enzyme (HCV polymerase) inhibitory activity, type 1b enzyme; format: biochemical, HCV BK strain (type 1b)
T1 construct: a region encoding NS5B (J Virol 1991 March, 65(3), 1105-13, 544 amino acids after deletion of 47 amino acids on the C-terminal); 6xHis (C); made in house; host or cells: Escherichia coli
Summary of the method: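 Rxn: NS5B 1b (BK, ΔC47, His6) 0.5 μg/ml; substrate RNA 5 μg/ml; ATP/GTP/CTP 50 μM, UTP 2 μM + [5,6-3H]UTP; 20 mM Tris pH 7.5, 5 mM MgCl2, 50 mM NaCl, 1 mM EDTA/DTT. 25 °C, 60 min. Stop with TCA/pyrophosphate, filter, scintillation count; IC50 vs. untreated.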

[2] = molecular target: T2, HCV polymerase (NS5B) type 1a (Hepatitis C virus genotype 1a, UniProt P26664); test: Assay of enzyme (HCV polymerase) inhibitory activity, type 1a enzyme; format: biochemical, HCV type 1a (cloned from the blood of patients)
T2 construct: made in house; host or cells: Escherichia coli (by the 'similar method' of the 1b enzyme)
Summary of the method: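 NS5B Δ47 C-term His6 (type 1a, 1.5 μg/ml); substrate RNA 5 μg/ml; ATP/GTP/CTP 50 μM, UTP 2 μM + [5,6-3H]UTP; Tris pH 7.5, MgCl2 5 mM; 25° C, 60 min. TCA/pyrophosphate stop, GF/B filter, scintillation. IC50 vs no-compound control.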

[3] = HCV polymerase inhibitory activity IC50, 1b, type 1b enzyme
[4] = HCV polymerase inhibitory activity IC50, 1a, type 1a enzyme
[5] = HCV polymerase inhibitory activity (IC50), 1b, type 1b enzyme 0.5 μg/ml, 25° C., 60 min
[6] = HCV polymerase inhibitory activity (IC50), 1a, type 1a enzyme 1.5 μg/ml, 25° C., 60 min

SMILES	IC50 [1, 3]	IC50 [2, 4]	IC50 [1, 5]	IC50 [2, 6]
O=C(NCc1ccc(OC(F)(F)F)cc1)[C@H]1CN(c2nc3nc(Cl)ncc3s2)CCN1S(=O)(=O)c1ccc(OC(F)(F)F)cc1 [Example 802, (R)-4-(5-chloro-thiazolo[4,5-d]pyrimidin-2-yl)-1-(4-trifluoromethoxy-benzenesulfonyl)-piperazine-2-carboxylic acid 4-trifluoromethoxy-benzylamide]	< 100 nM	< 100 nM		
COc1ccc(CNC(=O)[C@H]2CN(c3cnc4cncnc4n3)CCN2S(=O)(=O)c2ccc(OC(F)(F)F)cc2)cc1 [Example 658, (R)-4-pteridin-7-yl-1-(4-trifluoromethoxy-benzenesulfonyl)-piperazine-2-carboxylic acid 4-methoxy-benzylamide]			< 100 nM	< 100 nM
O=C(NCc1ccc(OC(F)(F)F)cc1)[C@H]1CN(c2cnc3cncnc3n2)CCN1S(=O)(=O)c1ccc(C(F)(F)F)cc1 [Example 791, (R)-4-pteridin-7-yl-1-(4-trifluoromethyl-benzenesulfonyl)-piperazine-2-carboxylic acid 4-trifluoromethoxy-benzylamide]	< 100 nM	< 100 nM		
CCCc1ccc(CNC(=O)[C@H]2CN(c3cnc(C(=O)O)cn3)CCN2S(=O)(=O)c2ccc(CCC)s2)cc1 [Example 438, (R)-3-(4-propyl-benzylcarbamoyl)-4-(5-propyl-thiophene-2-sulfonyl)-3,4,5,6-tetrahydro-2H-[1,2′]bipyrazinyl-5′-carboxylic acid]			< 100 nM	< 100 nM
CCCc1ccc(CNC(=O)[C@H]2CN(C(=O)Cn3cnnn3)CCN2S(=O)(=O)c2ccc(OC(F)(F)F)cc2)cc1 [Example 461, (R)-4-(2-tetrazol-1-yl-acetyl)-1-(4-trifluoromethoxy-benzenesulfonyl)-piperazine-2-carboxylic acid 4-propyl-benzylamide]			< 100 nM	< 100 nM
CCCc1ccc(S(=O)(=O)N2CCN(c3nc(C)c(C(=O)OC)s3)C[C@@H]2C(=O)NCc2ccc(C(C)C)cc2)cc1 [Example 297, 2-[(R)-3-(4-isopropyl-benzylcarbamoyl)-4-(4-propyl-benzenesulfonyl)-piperazin-1-yl]-4-methyl-thiazole-5-carboxylic acid methyl ester]			< 100 nM	< 100 nM
Cc1nc(N2CCN(S(=O)(=O)c3ccc(C(F)(F)F)cc3)[C@@H](C(=O)NCc3ccc(C(C)C)cc3)C2)sc1C(=O)O [Example 6, 2-[(R)-3-(4-isopropyl-benzylcarbamoyl)-4-(4-trifluoromethyl-benzenesulfonyl)-piperazin-1-yl]-4-methyl-thiazole-5-carboxylic acid]			< 100 nM	< 100 nM
CCCc1ccc(CNC(=O)[C@H]2CN(c3cnc(C(=O)O)cn3)CCN2S(=O)(=O)c2ccc(CCC)cc2)cc1 [Example 440, (R)-4-(4-propyl-benzenesulfonyl)-3-(4-propyl-benzylcarbamoyl)-3,4,5,6-tetrahydro-2H-[1,2′]bipyrazinyl-5′-carboxylic acid]			< 100 nM	< 100 nM
CCCCc1ccc(S(=O)(=O)N2CCN(C(C)=O)CC2C(=O)NCc2ccc(C(F)(F)F)cc2)cc1 (stereo not shown) [Example 91, 4-acetyl-1-(4-butyl-benzenesulfonyl)-piperazine-2-carboxylic acid 4-trifluoromethyl-benzylamide]			> 1000 nM	> 1000 nM
O=C(NCc1ccc(OC(F)(F)F)cc1)[C@H]1CN(c2nc3nc(C4CC4)ncc3s2)CCN1S(=O)(=O)c1ccc(OC(F)F)cc1 [Example 1016, (R)-4-(5-cyclopropyl-thiazolo[4,5-d]pyrimidin-2-yl)-1-(4-difluoromethoxy-benzenesulfonyl)-piperazine-2-carboxylic acid 4-trifluoromethoxy-benzylamide]	< 100 nM	< 100 nM		
NC(=O)c1nncc2sc(N3CCN(S(=O)(=O)c4ccc(OC(F)(F)F)cc4)[C@@H](C(=O)NCc4ccc(OC(F)(F)F)cc4)C3)nc12 [Example 915, 2-[(R)-4-(4-trifluoromethoxy-benzenesulfonyl)-3-(4-trifluoromethoxy-benzylcarbamoyl)-piperazin-1-yl]-thiazolo[4,5-d]pyridazine-4-carboxylic acid amide]	< 100 nM	< 100 nM		
CCC(F)(F)c1ccc(CNC(=O)[C@H]2CN(c3cnc4cc(Cl)ccc4n3)CCN2S(=O)(=O)c2ccc(OC(F)(F)F)cc2)cc1 [Example 688, (R)-4-(6-chloro-quinoxalin-2-yl)-1-(4-trifluoromethoxy-benzenesulfonyl)-piperazine-2-carboxylic acid 4-(1,1-difluoro-propyl)-benzylamide]	100 to 1000 nM	100 to 1000 nM		
CCC(F)(F)c1ccc(CNC(=O)[C@H]2CN(C(=O)Nc3ccn(C)n3)CCN2S(=O)(=O)c2ccc(OC(F)(F)F)cc2)cc1 [Example 569, (R)-4-(4-trifluoromethoxy-benzenesulfonyl)-piperazine-1,3-dicarboxylic acid 3-[4-(1,1-difluoro-propyl)-benzylamide] 1-[(1-methyl-1H-pyrazol-3-yl)-amide]]			< 100 nM	100 to 1000 nM
CCCc1ccc(CNC(=O)[C@H]2CN(c3nc4ncncc4s3)CCN2S(=O)(=O)c2ccc(OC(F)(F)F)cc2)cc1 [Example 914, (R)-4-thiazolo[4,5-d]pyrimidin-2-yl-1-(4-trifluoromethoxy-benzenesulfonyl)-piperazine-2-carboxylic acid 4-propyl-benzylamide]	< 100 nM	< 100 nM		
CCN(CC)c1nc2nc(Cl)nc(N3CCN(S(=O)(=O)c4ccc(OC(F)(F)F)cc4)[C@@H](C(=O)NCc4ccc(OC(F)(F)F)cc4)C3)c2s1 [Example 993, (R)-4-(5-chloro-2-diethylamino-thiazolo[4,5-d]pyrimidin-7-yl)-1-(4-trifluoromethoxy-benzenesulfonyl)-piperazine-2-carboxylic acid 4-trifluoromethoxy-benzylamide]	> 1000 nM	> 1000 nM		
O=C(O)CCc1cncc2ncc(N3CCN(S(=O)(=O)c4ccc(OC(F)(F)F)cc4)[C@@H](C(=O)NCc4ccc(OC(F)(F)F)cc4)C3)nc12 [Example 808, 3-{2-[(R)-4-(4-trifluoromethoxy-benzenesulfonyl)-3-(4-trifluoromethoxy-benzylcarbamoyl)-piperazin-1-yl]-pyrido[3,4-b]pyrazin-8-yl}-propionic acid]	< 100 nM	< 100 nM		
CC(C)c1ccc(CNC(=O)[C@H]2CN(C(=O)CCCC(=O)O)CCN2S(=O)(=O)c2ccc(C(F)(F)F)cc2)cc1 [Example 190, 5-[(R)-3-(4-isopropyl-benzylcarbamoyl)-4-(4-trifluoromethyl-benzenesulfonyl)-piperazin-1-yl]-5-oxo-pentanoic acid]			100 to 1000 nM	> 1000 nM
CCN(C)c1ccc(CNC(=O)[C@H]2CN(c3nc(Cl)c(C(=O)O)s3)CCN2S(=O)(=O)c2ccc(OC(F)(F)F)cc2)cc1 [Example 1093, 4-chloro-2-[(R)-3-[4-(ethyl-methyl-amino)-benzylcarbamoyl]-4-(4-trifluoromethoxy-benzenesulfonyl)-piperazin-1-yl]-thiazole-5-carboxylic acid]	< 100 nM	< 100 nM		
CCC(F)(F)c1ccc(CNC(=O)[C@H]2CN(c3nc4nc(C)[nH]c(=O)c4s3)CCN2S(=O)(=O)c2ccc(OC(F)(F)F)cc2)cc1 [Example 911, (R)-4-(5-methyl-7-oxo-6,7-dihydro-thiazolo[4,5-d]pyrimidin-2-yl)-1-(4-trifluoromethoxy-benzenesulfonyl)-piperazine-2-carboxylic acid 4-(1,1-difluoro-propyl)-benzylamide]	< 100 nM	< 100 nM		
CC(=O)N1CCN(S(=O)(=O)c2ccc(C3CC3)cc2)[C@@H](C(=O)NCc2ccc(C(C)C)cc2)C1 [Example 400, (R)-4-acetyl-1-(4-cyclopropyl-benzenesulfonyl)-piperazine-2-carboxylic acid 4-isopropyl-benzylamide]			< 100 nM	< 100 nM
CCCc1ccc(CNC(=O)[C@H]2CN(c3nc4c(s3)CNCC4)CCN2S(=O)(=O)c2ccc(OC(F)(F)F)cc2)cc1 [Example 557, (R)-4-(4,5,6,7-tetrahydro-thiazolo[5,4-c]pyridin-2-yl)-1-(4-trifluoromethoxy-benzenesulfonyl)-piperazine-2-carboxylic acid 4-propyl-benzylamide]			< 100 nM	< 100 nM
CCC(F)(F)c1ccc(CNC(=O)[C@H]2CN(c3ccncn3)CCN2S(=O)(=O)c2ccc(OC(F)(F)F)cc2)cc1 [Example 580, (R)-4-pyrimidin-4-yl-1-(4-trifluoromethoxy-benzenesulfonyl)-piperazine-2-carboxylic acid 4-(1,1-difluoro-propyl)-benzylamide]			< 100 nM	< 100 nM
CCCc1ccc(CNC(=O)[C@H]2CN(c3ccc(C(N)=O)nn3)CCN2S(=O)(=O)c2ccc(OC(F)(F)F)cc2)cc1 [Example 547, 6-[(R)-3-(4-propyl-benzylcarbamoyl)-4-(4-trifluoromethoxy-benzenesulfonyl)-piperazin-1-yl]-pyridazine-3-carboxylic acid amide]			< 100 nM	< 100 nM

Source: patent US8017612B2, “Piperazine compound and use thereof as a HCV polymerase inhibitor” (priority 2006, dated 2011)
